From patent US20090221624A1, “4-AMINOQUINOLINE COMPOUNDS FOR TREATING VIRUS-RELATED CONDITIONS” (priority 2005, published 2009)
Where two headings read alike, the source gives them in different places.

Experiments:
[1] = test system: HCV replicon (Clone A cells, Huh7, subgenomic hepatits C virus RNA); test: HCV Neo screening assay (HCV replicon, NPTII ELISA); type: cell-based, hepatitis C virus
RSV minigenome = test: RSV minigenome-dependent β-galactosidase expression assay (RSV β-Gal); type: cell-based, respiratory syncytial virus; conditions: for EC50: Secondary Data, RSV, read-out: RSV EC50; for RSV TI: therapeutic index CC50/EC50, RSV
WNV (WN-hRuPac cells) = test: WNV antiviral activity, WN-hRuPac cells, Renilla luciferase; type: cell-based, West Nile virus; conditions: for EC50: Secondary Data, WNV, read-out: WNV EC50; for WNV TI: therapeutic index CC50/EC50, WNV
YFV (YF-hRuPac cells) = test: microbe, parasite or virus in culture; type: cell-based, yellow fever virus; conditions: for EC50: read-out: YFV EC50
DNG (D2-hRuPac cells) = test: DNG antiviral activity, D2-hRuPac cells, Renilla luciferase; type: cell-based, Dengue fever virus; conditions: Dengue virus, secondary screening
EBOV minigenome = test: microbe, parasite or virus in culture; type: cell-based, Ebola virus; conditions: for EC50: read-out: EBOV EC50
SINV (SR19-F-luc cells) = test: SINV antiviral activity, SR19-F-luc cells, Firefly luciferase; type: cell-based; conditions: Sindbis virus; for EC50: secondary screening, SR19-F-luc cells
[2] = test system: viable cells (intracellular ATP)

**Q.** With `COc1ccc2nc(C)cc(Nc3ccc(I)cc3)c2c1` [Compound 76] as the compound, how does the EC50 ([1]; Hepatitis C virus, Huh-7, Secondary Data, HCV) read?
**A.** The EC50 was 11.3 µM.

**Q.** And the inhibition at 25 µM ([1]; Hepatitis C virus, Huh-7, primary screening, 25 μM final concentration, 24 hours, percent inhibition of viral replication, read-out: HCV Inh)?
**A.** Its inhibition at 25 µM is 152%.

**Q.** And the “HCV TI” value ([1]; therapeutic index CC50/EC50, HCV)?
**A.** Its value is 1.9.

**Q.** What about the EC50 (RSV minigenome; human respiratory syncytial virus) of the same compound?
**A.** The EC50 was 18.2 µM.

**Q.** What about the inhibition at 25 µM (RSV minigenome; human respiratory syncytial virus, primary screening, 25 μM final concentration, 24 hours, percent inhibition of viral replication, read-out: RSV Inh) of the same compound?
**A.** The inhibition at 25 µM was 75.9%.

**Q.** And the “RSV TI” value (RSV minigenome)?
**A.** Its value is 1.95.

**Q.** And the EC50 (WNV (WN-hRuPac cells); West Nile virus)?
**A.** Its EC50 is 50.4 µM.

**Q.** And the inhibition at 25 µM (WNV (WN-hRuPac cells); West Nile virus, primary screening, 25 μM final concentration, 24 hours, percent inhibition of viral replication, read-out: WNV Inh)?
**A.** Its inhibition at 25 µM is 85.9%.

**Q.** And the “WNV TI” value (WNV (WN-hRuPac cells))?
**A.** Its value is 0.7.

**Q.** And the “YFV TI” value (YFV (YF-hRuPac cells))?
**A.** Its value is 3.98.

**Q.** What about the inhibition at 25 µM (YFV (YF-hRuPac cells); Yellow fever virus, 24 h, read-out: YFV Inh) of the same compound?
**A.** The inhibition at 25 µM was 93.1%.

**Q.** What about the EC50 (YFV (YF-hRuPac cells); Yellow fever virus) of the same compound?
**A.** The EC50 was 8.92 µM.

**Q.** What about the EC50 (DNG (D2-hRuPac cells)) of the same compound?
**A.** The EC50 was 13.5 µM.

**Q.** What about the inhibition at 25 µM (EBOV minigenome; Zaire ebolavirus, 24 h, read-out: EBOV Inh) of the same compound?
**A.** Its inhibition at 25 µM is 93.9%.

**Q.** And the EC50 (EBOV minigenome; Zaire ebolavirus)?
**A.** Its EC50 is 19.8 µM.

**Q.** What about the inhibition at 25 µM (SINV (SR19-F-luc cells); primary screening, 25 μM final concentration, 24 hours, percent inhibition of viral replication, read-out: SINV Inh) of the same compound?
**A.** Its inhibition at 25 µM is 93.5%.

**Q.** What about the EC50 (SINV (SR19-F-luc cells)) of the same compound?
**A.** The EC50 was 2.55 µM.

**Q.** What about the CC50 (in vitro; DNG CC50) of the same compound?
**A.** Its CC50 is 35.5 µM.

**Q.** And the CC50 (in vitro; EBOV CC50)?
**A.** Its CC50 is 35.5 µM.

**Q.** What about the CC50 (in vitro; HCV CC50) of the same compound?
**A.** Its CC50 is 21.5 µM.

**Q.** What about the CC50 (in vitro; RSV CC50) of the same compound?
**A.** The CC50 was 35.5 µM.

**Q.** What about the CC50 (in vitro; SINV CC50) of the same compound?
**A.** Its CC50 is 35.5 µM.

**Q.** And the CC50 (in vitro; WNV CC50)?
**A.** The CC50 was 35.5 µM.

**Q.** What about the CC50 (in vitro; YFV CC50) of the same compound?
**A.** Its CC50 is 35.5 µM.

**Q.** With `COc1ccccc1Nc1cc(C)nc2c(C)c(C)cc(N)c12` [Compound 79] as the compound, how does the EC50 (RSV minigenome) read?
**A.** Its EC50 is 2.2 µM.

**Q.** What about the “RSV TI” value (RSV minigenome) of the same compound?
**A.** The value was 23.3.

**Q.** And the EC50 (WNV (WN-hRuPac cells); West Nile virus)?
**A.** Its EC50 is 19 µM.

**Q.** What about the “WNV TI” value (WNV (WN-hRuPac cells)) of the same compound?
**A.** The value was 2.7.

**Q.** What about the “YFV TI” value (YFV (YF-hRuPac cells)) of the same compound?
**A.** Its value is 16.53.

**Q.** What about the EC50 (YFV (YF-hRuPac cells); Yellow fever virus) of the same compound?
**A.** The EC50 was 3.1 µM.

**Q.** What about the EC50 (DNG (D2-hRuPac cells)) of the same compound?
**A.** The EC50 was 8.26 µM.

**Q.** And the “EBOV Inh” value (EBOV minigenome)?
**A.** The value was 49.83%.

**Q.** And the EC50 (EBOV minigenome)?
**A.** Its EC50 is 43.5 µM.

**Q.** What about the EC50 (SINV (SR19-F-luc cells)) of the same compound?
**A.** The EC50 was 8.57 µM.

**Q.** And the CC50 [2]?
**A.** Its CC50 is 51.2 µM.

**Q.** And the CC50 (in vitro; HCV CC50)?
**A.** Its CC50 is no less than 75 µM.
